Read-outs that look alike come from different tables or passages of the source.
How the values were obtained:
RXF 393 = settings: RXF 393
OVCAR-5 = experiment: cells; settings: Homo sapiens, OVCAR-5, 48 h
SF-268 = experiment: cells; settings: Homo sapiens, SF-268, 48 h
ACHN = experiment: cells; settings: Homo sapiens, 48 h
HCT-15 [1] = system: HCT-15
NCI-H23 [2] = experiment: cells; settings: Homo sapiens, NCI-H23, 48 h
NCI-H23 [3] = system: NCI-H23
SNB-75 = experiment: cells; settings: Homo sapiens, SNB-75, 48 h
RPMI-8226 = experiment: cells; settings: Homo sapiens, RPMI-8226, 48 h
HOP-62 = settings: HOP-62
HCC-2998 = settings: HCC-2998
788-0 = experiment: cells; settings: Homo sapiens, 48 h
HCT-15 [4] = experiment: cells; settings: Homo sapiens, HCT-15, 48 h
[5] = Log10 Concentration −4.0, Molar
[6] = Log10 Concentration −5.0, Molar
[7] = Log10 Concentration −6.0, Molar
[8] = Log10 Concentration −7.0, Molar
[9] = Log10 Concentration −8.0, Molar

## CCOC(=O)C[C@@H]1C(O[Si](C)(C)C(C)(C)C)[C@H](n2cnc3c(NC(=O)Nc4ccccc4)ncnc32)O[C@@H]1CNC(=O)NC (stereo partly drawn) [Compound 10]
SK-MEL-2; 48 h
  TGI: 3.31E−5 Molar
SK-MEL-2; [5]
  Percent Growth: −30%
SK-MEL-2; [6]
  Percent Growth: 32%
SK-MEL-2; [7]
  Percent Growth: 99%
SK-MEL-2; [8]
  Percent Growth: 94%
SK-MEL-2; [9]
  Percent Growth: 102%
OVCAR-8; 48 h
  TGI: 7.72E−5 Molar
OVCAR-8; [5]
  Percent Growth: −4%
OVCAR-8; [6]
  Percent Growth: 29%
OVCAR-8; [7]
  Percent Growth: 98%
OVCAR-8; [8]
  Percent Growth: 100%
OVCAR-8; [9]
  Percent Growth: 99%
SK-MEL-5; 48 h
  TGI: >1.00E−4 Molar
SK-MEL-5; [5]
  Percent Growth: 11%
SK-MEL-5; [6]
  Percent Growth: 28%
SK-MEL-5; [7]
  Percent Growth: 89%
SK-MEL-5; [8]
  Percent Growth: 100%
SK-MEL-5; [9]
  Percent Growth: 96%
RXF 393; 48 h
  TGI: 4.63E−6 Molar
RXF 393; [5]
  Percent Growth: −59%
RXF 393; [6]
  Percent Growth: −46%
RXF 393; [7]
  Percent Growth: 92%
RXF 393; [8]
  Percent Growth: 97%
RXF 393; [9]
  Percent Growth: 99%
OVCAR-5
  GI50: 31.1 µM
OVCAR-5; read-out: LC50
  CC50: > 100 µM
SF-268
  GI50: 6.53 µM
SF-268; read-out: LC50
  CC50: 92.5 µM
ACHN
  GI50: 8.55 µM
ACHN; read-out: LC50
  CC50: > 100 µM
HCT-15 [1]; 48 h
  TGI: >1.00E−4 Molar
HCT-15 [1]; [5]
  Percent Growth: 43%
HCT-15 [1]; [6]
  Percent Growth: 47%
HCT-15 [1]; [7]
  Percent Growth: 94%
HCT-15 [1]; [8]
  Percent Growth: 96%
HCT-15 [1]; [9]
  Percent Growth: 99%
NCI-H23 [2]
  GI50: 33.3 µM
NCI-H23 [2]; read-out: LC50
  CC50: > 100 µM
M14; 48 h
  TGI: 1.16E−5 Molar
M14; [5]
  Percent Growth: −56%
M14; [6]
  Percent Growth: 4%
M14; [7]
  Percent Growth: 81%
M14; [8]
  Percent Growth: 82%
M14; [9]
  Percent Growth: 90%
NCI-H23 [3]; 48 h
  TGI: >1.00E−4 Molar
NCI-H23 [3]; [5]
  Percent Growth: 36%
NCI-H23 [3]; [6]
  Percent Growth: 65%
NCI-H23 [3]; [7]
  Percent Growth: 100%
NCI-H23 [3]; [8]
  Percent Growth: 100%
NCI-H23 [3]; [9]
  Percent Growth: 101%
HCT-116; 48 h
  TGI: 1.61E−5 Molar
HCT-116; [5]
  Percent Growth: −88%
HCT-116; [6]
  Percent Growth: 23%
HCT-116; [7]
  Percent Growth: 78%
HCT-116; [8]
  Percent Growth: 113%
HCT-116; [9]
  Percent Growth: 93%
SNB-75
  GI50: 4.56 µM
SNB-75; read-out: LC50
  CC50: > 100 µM
RPMI-8226
  GI50: 1.09 µM
RPMI-8226; read-out: LC50
  CC50: 59 µM
LOX IMVI; 48 h
  TGI: >1.00E−4 Molar
LOX IMVI; [5]
  Percent Growth: 4%
LOX IMVI; [6]
  Percent Growth: 35%
LOX IMVI; [7]
  Percent Growth: 93%
LOX IMVI; [8]
  Percent Growth: 97%
LOX IMVI; [9]
  Percent Growth: 97%
HOP-62; 48 h
  TGI: 2.64E−5 Molar
HOP-62; [5]
  Percent Growth: −65%
HOP-62; [6]
  Percent Growth: 48%
HOP-62; [7]
  Percent Growth: 97%
HOP-62; [8]
  Percent Growth: 92%
HOP-62; [9]
  Percent Growth: 99%
SK-OV-3; 48 h
  TGI: >1.00E−4 Molar
SK-OV-3; [5]
  Percent Growth: 16%
SK-OV-3; [6]
  Percent Growth: 66%
SK-OV-3; [7]
  Percent Growth: 90%
SK-OV-3; [8]
  Percent Growth: 96%
SK-OV-3; [9]
  Percent Growth: 96%
NCI-H226; 48 h
  TGI: >1.00E−4 Molar
NCI-H226; [5]
  Percent Growth: 55%
NCI-H226; [6]
  Percent Growth: 71%
NCI-H226; [7]
  Percent Growth: 102%
NCI-H226; [8]
  Percent Growth: 105%
NCI-H226; [9]
  Percent Growth: 101%
HCC-2998; 48 h
  TGI: >1.00E−4 Molar
HCC-2998; [5]
  Percent Growth: 62%
HCC-2998; [6]
  Percent Growth: 69%
HCC-2998; [7]
  Percent Growth: 93%
HCC-2998; [8]
  Percent Growth: 96%
HCC-2998; [9]
  Percent Growth: 101%
A498; 48 h
  TGI: 1.71E−5 Molar
A498; [5]
  Percent Growth: −41%
A498; [6]
  Percent Growth: 13%
A498; [7]
  Percent Growth: 91%
A498; [8]
  Percent Growth: 92%
A498; [9]
  Percent Growth: 95%
CCRF-CEM; 48 h
  TGI: 8.86E−5 Molar
CCRF-CEM; [5]
  Percent Growth: −2%
CCRF-CEM; [6]
  Percent Growth: 41%
CCRF-CEM; [7]
  Percent Growth: 92%
CCRF-CEM; [8]
  Percent Growth: 100%
CCRF-CEM; [9]
  Percent Growth: 96%
788-0
  GI50: 2 µM
HCT-15 [4]
  GI50: 8.5 µM
HCT-15 [4]; read-out: LC50
  CC50: > 100 µM
MDA-MB-231/ATCC; 48 h
  TGI: 4.13E−5 Molar
MDA-MB-231/ATCC; [5]
  Percent Growth: −13%
MDA-MB-231/ATCC; [6]
  Percent Growth: 20%
MDA-MB-231/ATCC; [7]
  Percent Growth: 94%
MDA-MB-231/ATCC; [8]
  Percent Growth: 103%
MDA-MB-231/ATCC; [9]
  Percent Growth: 101%
SF-539; 48 h
  TGI: >1.00E−4 Molar
SF-539; [5]
  Percent Growth: 17%
SF-539; [6]
  Percent Growth: 29%
SF-539; [7]
  Percent Growth: 103%
SF-539; [8]
  Percent Growth: 91%
SF-539; [9]
  Percent Growth: 97%

Source: patent US20100152434A1, “Protein Kinase-binding Nucleosides and Associated Methods” (priority 2007, published 2010)
